Patent publication US20260257992A1, “AGONISTS OF SMALL HETERODIMER PARTNER FOR CANCER THERAPY” (THE BOARD OF TRUSTEES OF THE UNIVERSITY OF ILLINOIS, priority 2023, published 2026)

Legend:
breast cancer cell lines = experiment: Proliferation of breast cancer cell lines; type: cell-based
Source text: Protective attributes of NR0B2 are likely due to its expression in myeloid cells. […] Among human PBMCs, various subtypes of dendritic cells (DCs) and monocyte populations had elevated expression of NR0B2.

NR0B2 = molecular target: T1, NR0B2 (Homo sapiens, UniProt Q15466); experiment: ABCA1 reporter screen to identify NR0B2 agonists (HepG2); type: cell-based; design: key: ✓: using strict cutoffs with respect to DSHN for passing each metric; X: using strict cutoffs with respect to DSHN for passing each metric; conditions: HepG2, 50 μM test compound, 1 μM GW3965; pass/fail with respect to DSHN
T1 construct: a reporter assay which makes use of the endogenous cholesterol homeostatic feedback loop; endogenous in cells; host or cells: HepG2
T1 sequence (Q15466 1-257): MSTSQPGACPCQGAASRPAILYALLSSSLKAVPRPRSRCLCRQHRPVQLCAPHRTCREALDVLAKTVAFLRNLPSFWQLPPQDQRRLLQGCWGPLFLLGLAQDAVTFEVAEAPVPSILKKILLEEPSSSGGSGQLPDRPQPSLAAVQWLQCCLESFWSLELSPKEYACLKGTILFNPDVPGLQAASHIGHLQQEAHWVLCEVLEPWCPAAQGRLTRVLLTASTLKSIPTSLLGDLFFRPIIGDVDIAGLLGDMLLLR
Source text: (§1) Development of a more efficacious NR0B2 agonist. While DSHN was a useful proof-of-concept small molecule, macrophages required high doses and chronic exposure for robust influences on subsequent Tregs expansion. […] Therefore, we synthesized several derivatives of DSHN and screened them using a reporter assay which makes use of the endogenous cholesterol homeostatic feedback loop, where FXR activation upregulates NR0B2, which then inhibits LXR and its normal induction of ABCA1. We then followed this screen with several others with stringent cutoffs: effect on endogenous ABCA1 and IL1β expression, reduction of Treg expansion in either macrophage or DC co-cultures, and low cellular toxicity (FIG. 5A, Table 4).
Screening to identify NR0B2 agonists. HepG2 cells were co-transfected with ABCA1 renilla reporter plasmid and TK-control firefly luciferase vector at 20:1 using Lipofectamine 3000 reagent according to manufacturer's instructions for 24 hrs. Afterwards, 7000 cells were seeded in to 384 well f-bottom, white plates (Greiner Bio-One). Test compounds were added to the plates in a final working volume of 30 μL (for a final concentration of 50 μM) in presence of DMSO or 1 μM GW3965 and incubated for 20-24 hrs at 37° C. Luciferase activity was measured using the Luc-Pair Duo-Luciferase HT Assay kit (GeneCopoeia, Rockville, MD, USA) by adding luciferase substrates sequentially following manufacturer instructions. Luminescence was measured with 2 s integration times in a microplate reader (BioTek Cytation 5), 15 min after adding each substrate. The addition of reagents to the microplates was timed at each step to match the reading time delays and reading sequence of the microplate reader.

[1] = Low cellular toxicity screen; type: cell-based; design: key: ✓: using strict cutoffs with respect to DSHN for passing each metric; X: using strict cutoffs with respect to DSHN for passing each metric; conditions: pass/fail with respect to DSHN
Source text: as §1
Resazurin cell viability assay. 20,000 cells were seeded into 96 well f-bottom, black plates (Corning Costar) and cell viability was measured using 100 μL resazurin per well at 0.3 mg/mL (Acros Organics). The fluorescence signal was quantified by plate reader (560 nm excitation/590 nm emission) at 2-3 h.

EMT6 metastatic lesions = experiment: EMT6 metastatic mammary cancer (intravenous graft); type: in vivo, mouse
Source text: FIG. 7A-7I. DSHN-OMe reduces tumor and metastatic growth in murine models, in a myeloid cell-NR0B2 dependent manner. (A) E0771 cells were grafted into control mice (NR0B2^+/+; LysMCre^+) or mice where NR0B2 was knocked out in myeloid immune cells (NR0B2^fl/fl; LysMCre^+). 8 days post-graft, daily treatment with placebo or DSHN-OMe was initiated and subsequent tumor growth followed through time. Different letters denote statistical difference on the final measurement (day 21, 2-Way ANOVA followed by Šidák's post-hoc, N=5-8). (B) Waterfall plot illustration of data in (A) showing tumor volume at final day of measurement. Asterisk indicates significant difference (Chi-squared test, P<0.05). (C) Lewis Lung cells were grafted into control mice (NR0B2^+/+; LysMCre^+) or mice where NR0B2 was knocked out in myeloid immune cells (NR0B2^fl/fl; LysMCre^+). 10 days post-graft, daily treatment with placebo or DSHN-OMe was initiated and subsequent tumor growth followed through time. Different letters denote statistical difference on the final measurement (day 21, 2-Way ANOVA followed by Šidák's post-hoc, N=8-13). (D) Waterfall plot illustration of data in (C) showing tumor volume at final day of measurement. Asterisk indicates significant difference (Chi-squared test, P<0.05). (E) DSHN-OMe is an effective treatment against metastatic 4T1 mammary cancer growth. 4T1 cells were grafted intravenously, and lung metastatic lesions allowed to establish for 3d before treatment commenced. Metastatic burden through time is presented above the metastatic burden on the final day of imaging in the middle panel (N=12-17/group, mixed-effects model followed by Tukey's multiple comparison test). Representative luciferase images in the bottom panel. (F) DSHN-OMe is an effective treatment against metastatic EMT6 mammary cancer growth. EMT6 cells were grafted intravenously, and lung metastatic lesions allowed to establish for 3d. DSHN-OMe was administered on days 4, 5, 8, 9 and 10 post-graft. 11d post-graft lungs were imaged ex vivo for luciferase (N=15/group). (G) EMT6 metastatic lungs were assessed for Ki67 mRNA and (H) FOXP3 mRNA. (I) EMT6 metastatic lungs were assessed for CD8+ cytotoxic T cells (CD8+). Asterisks indicate statistically significant differences.
Metastatic breast cancer urgently requires new therapeutic approaches. Therefore, we tested the ability of DSHN-OMe to reduce the subsequent growth of established metastases. 4T1 cells were introduced intravenously and lesions allowed to establish for 3d. Since ICB has been approved for a subset of TNBC patients, we also included groups treated with αPDL1. […] We confirmed these findings using a different model of murine TNBC, EMT6. […]

Row | ABCA1 reporter screen (NR0B2) | SMILES | Proliferation of breast cancer cell lines (breast cancer cell lines) | Low Toxicity [1] | EMT6 metastatic burden (EMT6 metastatic lesions; lungs imaged ex vivo 11 d post-graft) | CD8+ cytotoxic T cells in EMT6 metastatic lungs (EMT6 metastatic lesions; mouse, in vivo) | Foxp3 expression in EMT6 metastatic lungs (EMT6 metastatic lesions; mouse, in vivo) | Ki67 mRNA in EMT6 metastatic lungs (EMT6 metastatic lesions; mouse, in vivo)
1 | – | CCN(CC)S(=O)(=O)c1cccc2cc(C(=O)O)c(O)cc12 [DSHN, reference compound] | no effect on proliferation | – | – | – | – | –
2 | ✓ | CCN(CC)S(=O)(=O)c1cccc2cc(C(=O)OC)c(O)cc12 [DSHN-OMe, Methyl 5-(N,N-diethylsulfamoyl)-3-hydroxy-2-naphthoate] | – | ✓ | significantly reduced metastatic burden | increase in the relative abundance of CD8+ cytotoxic T cells | decreased Foxp3 expression | decreased
